Key:
STC-1 = STC-1 protein in HUVEC supernatants by Western blotting; type: cell-based, human; details: vitronectin-coated dishes
Protocol: (§1) Since secreted biomarkers are relevant, the individual candidates were analysed in supernatants of integrin-inhibitor treated cells. HUVEC were treated either DI-17E6 or cilengitide. After different times, culture supernatants were collected and analysed for different biomarker candidates by Western blotting, ELISA or Luminex. Drug-induced biomarker regulation was evaluated in comparison to control cells.
Culture supernatants were collected analysed for STC-1 by Western blotting. […] B) Regulation of STC-1 in response to cilengitide (FIG. 4).
(§2) HUVECs were cultured o/n in vitronectin-coated dishes and incubated with different concentration of Sutent or Sorafenib for 6 h to 48 h. Culture supernatants were collected analysed for STC-1 by Western blotting. A) Regulation of STC-1 in response to Sutent. B) Regulation of STC-1 in response to Sorafenib (FIG. 10).

[1] = phase III, cytokine-refractory advanced renal carcinoma patients; cited from earlier work
[2] = phase II trial; cited from earlier work
[3] = tested on: Xenograft models of colon, breast, and non-small cell lung cancer (NSCLC); details: cited from earlier work
EDN1 = EDN1 in HUVEC supernatants by ELISA; type: cell-based, human; details: vitronectin-coated dishes
Protocol: as §1
Culture supernatants were collected analysed for EDN1 by ELISA. […] B) Regulation of EDN1 in response to cilengitide (FIG. 8).
as §2, with “EDN1” for “STC-1”, “ELISA.” for “Western blotting.”, “11).” for “10).”

IL-8 = IL-8 in HUVEC supernatants by Luminex; type: cell-based, human; details: vitronectin-coated dishes
Protocol: as §1
Culture supernatants were collected analysed for IL-8 by Luminex. […] B) Regulation of IL-8 in response to cilengitide (FIG. 6).
as §2, with “IL-8” for “STC-1”, “Luminex.” for “Western blotting.”, “12).” for “10).”

ERK1/2 = assay: Western blot of integrin signalling in HUVEC plated on vitronectin: MAPK (ERK1/2); type: cell-based, human; details: for phosphorylation of MAPK: HUVEC, Western blot, following treatment
Protocol: (§3) To identify biomarkers associated with treatment, HUVEC were treated with cilengitide or DI-17E6. […] Gene expression profiles were generated from experiments with each condition being tested in triplicates. For this, RNA was extracted from treated and control cells and hybridized to genome-wide Affymetrix oligonucleotide microarrays to generate gene expression profiles. After preprocessing with the GCRMA algorithm (Wu Z, Journal American Statistical Association 2004; 99: 909-917), Affymetrix GeneChip data were filtered to exclude probe sets with low variability, low signal or poor probe annotation. Genes were specifically filtered to obtain secreted candidates that might be detectable in body fluids in humans and could be monitored in a non-invasive way in patients. […] Genes which show under the given condition an extraordinary response / response change/responsiveness are underlined.
(§4) Besides growth factor stimulation, integrin-mediated adhesion to the extracellular matrix is important to promote cell proliferation, survival, and migration. Upon integrin ligation a wide range of intracellular signaling events are induced, including activation of Ras, MAPK, FAK, Src, Rac/Rho/cdc42 GTPases. To support survival of endothelial cells during angiogenesis, integrins alpha(V) beta(3)/(5) together with FAK are required for a sustained activation of the MAPK cascade (i.e. ERK1/2). […] After 24 h of treatment, cell lysates were prepared and analysed by Western blotting. Effects on signaling pathways were evaluated by comparing the ratio of phosphorylated to total levels of the respective signaling molecule in order to account for potential effects arising from cell detachment.

FAK = assay: Western blot of integrin signalling in HUVEC plated on vitronectin: FAK; type: cell-based, human; details: for phosphorylation of FAK: HUVEC, Western blot, following treatment
Protocol: as §3, §4

activin A = assay: Activin A in HUVEC supernatants by ELISA; type: cell-based, human; details: vitronectin-coated dishes, 6 h to 72 h
Protocol: as §1
Culture supernatants were collected analysed for activin A by ELISA. […] B) Regulation of activin A in response to cilengitide (FIG. 9).

PDGF-BB = PDGF-BB in HUVEC supernatants by ELISA; type: cell-based, human; details: vitronectin-coated dishes, 6 h to 72 h
Protocol: as §1
Culture supernatants were collected analysed for PDGF-BB by ELISA. […] B) Regulation of PDFG-BB in response to cilengitide (FIG. 7).

MCP-1 = MCP-1 in HUVEC supernatants by Luminex; type: cell-based, human; details: vitronectin-coated dishes, 6 h to 72 h
Protocol: as §1
Culture supernatants were collected analysed for MCP-1 by Luminex. […] B) Regulation of MCP-1 in response to cilengitide (FIG. 5).

HUVEC = assay: Gene expression profiles of HUVEC after drug treatment (Affymetrix microarrays); type: cell-based, human; details: drug-treated vs non-treated or control-treated cells, filtered for secreted candidates
Excerpt: Gene expression profiles were generated from experiments with each condition being tested in triplicates. For this, RNA was extracted from treated and control cells and hybridized to genome-wide Affymetrix oligonucleotide microarrays to generate gene expression profiles. After preprocessing with the GCRMA algorithm (Wu Z, Journal American Statistical Association 2004; 99: 909-917), Affymetrix GeneChip data were filtered to exclude probe sets with low variability, low signal or poor probe annotation. Genes were specifically filtered to obtain secreted candidates that might be detectable in body fluids in humans and could be monitored in a non-invasive way in patients.

ADAMTS1 = ADAMTS1 protein in HUVEC supernatants by Western blotting; type: cell-based, human; details: vitronectin-coated dishes, 6 h to 72 h, vs control cells
Protocol: as §1
Culture supernatants were collected analysed for ADAMTS1 by Western blotting.
HUVECs were cultured o/n in vitronectin-coated dishes and incubated with different concentration of cilengitide for 6 h to 72 h. Culture supernatants were collected analysed for ADAMTS1 by Western blotting. A) Cilengitide mediated regulation of ADAMTS1 (65 kD and 85 kD). (FIG. 3).

[4] = tested on: angiogenesis in matrigel plugs; assay: bFGF-induced angiogenesis in matrigel plugs in monkeys (hemoglobin content); type: in vivo, Cynomolgus monkeys; details: single i.v. infusion at 100, 30, 10, or 3 mg/kg; after 6 days; 5 μg/mL bFGF
Protocol: In this model, angiogenesis was induced in matrigel plugs by the angiogenic growth factor bFGF. Matrigel plugs containing bFGF were implanted subcutan into the abdomen of healthy Cynomologus monkeys, and the animals were injected with DI-17E6 i.v. at different doses immediately thereafter. Evaluation of angiogenesis was carried out after matrigel implantation by quantification of the hemoglobin content in the matrigel plugs. Each condition was tested in different animals implanted with matrigel plugs.
Angiogenesis was induced in subcutaneous matrigel implants containing 5 μg/mL of bFGF in Cynomolgus monkeys. […] After 6 days, angiogenesis was quantified by measuring the hemoglobin content in the matrigel plugs. * denotes a p-value <0.05 and ** denotes a p-value <0.01 (FIG. 13).

CRP = details: DI-17E6-treated vs placebo-treated animals, 6 days
Protocol: Absolute concentrations of different proteins were measured by Luminex by comparing to respective standards.
Plasma was collected and analysed for CRP and IL-6 by Luminex. A) Regulation of CRP. B) Regulation of IL-6 (FIG. 14).

IL-6 = assay: Plasma IL-6 by Luminex in monkeys with matrigel plugs; type: in vivo, Cynomolgus monkeys; details: DI-17E6-treated vs placebo-treated animals, 6 days
Excerpt: A) Regulation of CRP. B) Regulation of IL-6 (FIG. 14).

[5] = integrin inhibitors, 24 h to 72 h
[6] = HUVEC on vitronectin, 24 h, DI-17E6 0.01 to 10 μg/mL, cilengitide 0.01 to 10 μM
[7] = integrin inhibitors, 6 h to 72 h

Molecule | STC-1 protein level in HUVEC supernatants (STC-1; [5]) | phosphorylation of MAPK (ERK1/2) | phosphorylation of FAK (FAK) | Activin A level in HUVEC supernatants (activin A) | PDGF-BB level in HUVEC supernatants (PDGF-BB) | MCP-1 level in HUVEC supernatants (MCP-1) | ADAMTS1 protein level in HUVEC supernatants (ADAMTS1) | EDN1 level in HUVEC supernatants (EDN1; [7]) | IL-8 level in HUVEC supernatants (IL-8; [7]) | further results
CNC(=O)c1cc(Oc2ccc(NC(=O)Nc3ccc(Cl)c(C(F)(F)F)c3)cc2)ccn1 [Sorafenib] |  |  |  |  |  |  |  |  |  | STC-1 protein level in HUVEC supernatants (STC-1; kinase inhibitors, 6 h to 48 h): down-regulated; side effect: diarrhea [1]: 33%; side effect: fatigue [1]: 26%; side effect: hand-foot skin reactions [1]: 27%; side effect: hypertension [1]: 11%; side effect: rash [1]: 34%; additional patients who experienced tumor shrinkage [2]: 9%; patients who experienced stable disease for at least 4 months [2]: 43%; tumor angiogenesis, as measured by anti-CD31 immunostaining [3]: significant inhibition of tumor angiogenesis; EDN1 level in HUVEC supernatants (EDN1; kinase inhibitors, 6 h to 48 h): up-regulated; IL-8 level in HUVEC supernatants (IL-8; kinase inhibitors, 6 h to 48 h): reduced protein levels
CC(C)[C@H]1C(=O)N[C@@H](CCCN=C(N)N)C(=O)NCC(=O)N[C@@H](CC(=O)O)C(=O)N[C@H](Cc2ccccc2)C(=O)N1C [cilengitide, cyclo-(Arg-Gly-Asp-DPhe-NMeVal)] | up-regulated | inhibited | inhibited | down-regulated | down-regulated | down-regulated | up-regulated | down-regulated | down-regulation | activation of ERK1/2 (ratio of phosphorylated to total) (ERK1/2; [6]): blocked activation; activation of FAK (ratio of phosphorylated to total) (FAK; [6]): blocked activation; Genes down-regulated in response to treatment (RNA level) (HUVEC): INHBA, EDN1, FST, DKK4, BMP4, MCP1, HHIP, NTN4, PHLDB2, PVR, CYR61, AUTS2, MERTK, FSTL3, APLN, PTX3, ANGPTL4, CTGF, SPOCK, IL8, NRG1, DKK3, CD44, BCHE, BDNF, FBXO4, EFEMP1, STC2; Genes up-regulated in response to treatment (RNA level) (HUVEC): ADAMTS 9, DAF, STC1, ADAMTS1, LAMAS, TCN2, SRPX, ADAM15, GUSB, HYAL2, PLAUR, CD40, NOTCH1, ENPP4
DI-17E6: antibody (CAS No: 1105038-73-0) having the biological characteristics of monoclonal mouse antibody 17E6, inhibits the αv-integrin subunit; improved immunogenicity (antibody, chains of the INN, looked up, V domains shown) VH: QVQLQQSGGELAKPGASVKVSCKASGYTFSSFWMHWVRQAPGQGLEWIGYINPRSGYTEYNEIFRDKATMTTDTSTSTAYMELSSLRSEDTAVYYCASFLGRGAMDYWGQGTTVTVSS VL: DIQMTQSPSSLSASVGDRVTITCRASQDISNYLAWYQQKPGKAPKLLIYYTSKIHSGVPSRFSGSGSGTDYTFTISSLQPEDIATYYCQQGNTFPYTFGQGTKVEIK | up-regulated | inhibited | inhibited | down-regulated | down-regulated | down-regulated | up-regulated | down-regulated | up-regulated | angiogenesis (hemoglobin content in the matrigel plugs) [4]: blocked the formation of new blood vessel at all doses; plasma CRP (CRP): up-regulated; plasma IL-6 (IL-6): up-regulated

Source: patent publication US20120004129A1, “BIOMARKERS FOR INHIBITORS WITH ANTI-ANGIOGENIC ACTIVITY” (Merck Patent GmbH, priority 2008, published 2012)
